Assay results from US11389438B2 (CHDI Foundation, Inc., priority 2019, dated 2022).
Counter-ions that a name gives are not always drawn. Like-named read-outs stand apart in the source and are kept apart here.

Tests used:
[1] = target: pre-formed polyQ46 or Exon1-polyQ46 aggregates (mHTT) (Homo sapiens, UniProt P42858, INS38QQQQQQQQQQQQQQQQQQQQQQQQQ); assay: Q46_RBA radioligand binding assay (displacement of [3H]-radioligand)
Experimental: Binding of W to mHTT. A radioligand binding assay was developed to screen for compounds which can efficiently displace a radioligand detailed elsewhere (see, e.g., U.S. Patent Publication No. from US 2017/0292150) pre-formed polyQ46 or Exon1-polyQ46 aggregates (Q46_RBA).
Aggregation of polyQ peptides is initiated by cleavage of the tag from a GST-polyQ46 or from a MBP-Exon1-polyQ46 fusion protein. The pre-formed aggregates are then incubated with compounds which compete with the [^3H]-radiolabelled ligand for binding to the aggregates. The readout is a scintillation based MicroBeta measurement of radioligand bound to aggregates. The activity was indicated as: +++, <100 nM; ++, 100-500 nM, +, >500 nM.

[2] = target: VHL complex (VHL, Elongin B, Elongin C, Cul2, Rbx1) (Homo sapiens (Human), UniProt P40337); assay: VHL SPR assay; type: binding
Description: Surface Plasmon Resonance (SPR) assays have been developed to test the affinity (KD) of VHL or CRBN-based compounds to respective recombinant ligase complex/domain.
The assays are based on surface plasmon resonance (SPR), which enables to measure the changes of the local refractive index due to changes of molecular mass on a gold chip surface in the case of a binding event and in a flowing system. To detect binding between both partners, the respective E3 ligase is immobilized to the chip surface, while the test compounds are flown over the chip surface at a steady velocity. The detected changes in the RU response are indicative of the binding event and are concentration dependent.
These tags provide the anchor for the capturing process to either an NTA or Streptavidin coated chip surface (immobilization level of 3,000-5,000 RU). Because of the rather complex structure of the VHL complex, it was additionally coupled to the chip surface by amino coupling to prevent any protein loss by disruption of the complex in the flowing system.
To detect binding of compounds and extract dissociation constants KD for the tested compounds to the immobilized E3 ligase, concentration response curves of the compounds were recorded. Compounds were usually tested in 10-pt dilutions up to 20 μM final concentration in assay buffer and were flown over the chip at 30 μL/min. The contact time for each cycle includes 90 s for association and 200 s for dissociation of compounds.
In the following tables, the Kd values are indicated as: +++, <100 nM; ++, 100-500 nM, +, >500 nM.

[3] = immobilized VHL complex, read-out: VHL SPR Kd

VHL complex (VHL, Elongin B, Elongin C, Cul2, Rbx1), sequence (P40337 whole entry, looked up): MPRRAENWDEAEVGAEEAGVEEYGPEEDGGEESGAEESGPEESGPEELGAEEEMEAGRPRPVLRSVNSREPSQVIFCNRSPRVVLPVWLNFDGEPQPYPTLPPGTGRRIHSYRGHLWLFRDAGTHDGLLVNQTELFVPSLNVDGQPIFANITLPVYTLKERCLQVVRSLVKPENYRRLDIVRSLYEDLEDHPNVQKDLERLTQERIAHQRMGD
VHL complex (VHL, Elongin B, Elongin C, Cul2, Rbx1), sequence (Q15370 whole entry partner, looked up): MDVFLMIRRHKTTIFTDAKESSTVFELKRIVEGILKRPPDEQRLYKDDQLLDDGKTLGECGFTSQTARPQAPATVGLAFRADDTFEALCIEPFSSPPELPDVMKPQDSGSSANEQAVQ
VHL complex (VHL, Elongin B, Elongin C, Cul2, Rbx1), sequence (Q15369 whole entry partner, looked up): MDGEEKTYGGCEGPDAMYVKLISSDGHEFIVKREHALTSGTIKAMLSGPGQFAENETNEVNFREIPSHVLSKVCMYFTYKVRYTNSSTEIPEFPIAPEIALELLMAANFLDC
VHL complex (VHL, Elongin B, Elongin C, Cul2, Rbx1), sequence (Q13617 whole entry partner, looked up): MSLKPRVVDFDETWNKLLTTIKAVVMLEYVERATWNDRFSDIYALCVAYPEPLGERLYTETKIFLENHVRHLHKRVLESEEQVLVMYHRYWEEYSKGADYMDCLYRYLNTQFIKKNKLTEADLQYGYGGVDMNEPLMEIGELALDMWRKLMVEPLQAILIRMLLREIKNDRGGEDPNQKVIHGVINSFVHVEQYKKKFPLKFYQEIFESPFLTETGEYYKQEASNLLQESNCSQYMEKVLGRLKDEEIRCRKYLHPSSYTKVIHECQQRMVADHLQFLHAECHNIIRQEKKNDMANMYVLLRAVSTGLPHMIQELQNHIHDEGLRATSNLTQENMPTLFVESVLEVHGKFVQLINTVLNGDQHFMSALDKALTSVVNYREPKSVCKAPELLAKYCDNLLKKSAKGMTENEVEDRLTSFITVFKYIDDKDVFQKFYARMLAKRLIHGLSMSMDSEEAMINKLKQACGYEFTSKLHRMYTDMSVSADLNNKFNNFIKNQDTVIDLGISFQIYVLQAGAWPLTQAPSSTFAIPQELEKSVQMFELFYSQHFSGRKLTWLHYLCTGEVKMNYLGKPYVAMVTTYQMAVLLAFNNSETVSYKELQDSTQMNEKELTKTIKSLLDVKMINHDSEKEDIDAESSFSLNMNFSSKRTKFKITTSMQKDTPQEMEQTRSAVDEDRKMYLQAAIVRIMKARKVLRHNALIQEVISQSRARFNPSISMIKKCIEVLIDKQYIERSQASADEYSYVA
VHL complex (VHL, Elongin B, Elongin C, Cul2, Rbx1), sequence (P62877 whole entry partner, looked up): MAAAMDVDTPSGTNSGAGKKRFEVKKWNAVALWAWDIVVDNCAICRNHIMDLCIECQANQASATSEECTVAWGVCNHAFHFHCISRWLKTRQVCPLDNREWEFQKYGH

Compound | IC50 [1] [µM] | Kd [2, 3] [µM] | Kd [2] [µM]
CNc1c(-c2cn3c(n2)sc2cc(OCCOCCOCC(=O)N[C@H](C(=O)N4C[C@H](O)C[C@H]4C(=O)NCc4ccc(-c5scnc5C)cc4)C(C)(C)C)ccc23)nc2cc(C#N)ccn12 [Compound 2] | < 0.1 | 0.1 to 0.5 | –
CNc1c(-c2cn3c(n2)sc2cc(OCCOCCOCCOCC(=O)N[C@H](C(=O)N4C[C@H](O)C[C@H]4C(=O)NCc4ccc(-c5scnc5C)cc4)C(C)(C)C)ccc23)nc2cc(C#N)ccn12 [Compound 3] | < 0.1 | 0.1 to 0.5 | –
Cc1ncsc1-c1ccc(CNC(=O)[C@H]2C[C@H](O)CN2C(=O)[C@@H](C(C)C)N2Cc3ccccc3C2=O)c(OCCOCCOCCOCCOc2ccc(C(=O)Nc3ccc4oc(-c5ccc(=O)n(C)n5)nc4c3)nc2)c1 [Compound 11] | < 0.1 | > 0.5 | –
Cc1ncsc1-c1ccc(CNC(=O)[C@@H]2C[C@@H](O)CN2C(=O)[C@H](C(C)C)N2Cc3ccccc3C2=O)c(OCCOCCOCCOCCOc2ccc(C(=O)Nc3ccc4oc(-c5ccc(=O)n(C)n5)nc4c3)nc2)c1 [Compound 20, 5-{2-[2-(2-{2-[2-({[(2S,4R)-4-Hydroxy-1-[(2S)-3-methyl-2-(1-oxo-2,3-dihydro-1H-isoindol-2-yl)butanoyl]pyrrolidin-2-yl]formamido}methyl)-5-(4-methyl-1,3-thiazol-5-yl)phenoxy]ethoxy}ethoxy)ethoxy]ethoxy}-N-[2-(1-methyl-6-oxo-1,6-dihydropyridazin-3-yl)-1,3-benzoxazol-5-yl]pyridine-2-carboxamide] | < 0.1 | 0.1 to 0.5 | –
Cc1ncsc1-c1ccc(CNC(=O)[C@@H]2C[C@@H](O)CN2C(=O)[C@@H](NC(=O)CCOCCOc2ccc(C(=O)Nc3ccc4oc(-c5ccc(=O)n(C)n5)nc4c3)nc2)C(C)(C)C)cc1 [Compound 21] | < 0.1 | 0.1 to 0.5 | –
Cc1ncsc1-c1ccc(CNC(=O)[C@@H]2C[C@@H](O)CN2C(=O)[C@@H](NC(=O)CCOCCOCCOc2ccc(C(=O)Nc3ccc4oc(-c5ccc(=O)n(C)n5)nc4c3)nc2)C(C)(C)C)cc1 [Compound 22, 5-{2-[2-(2-{[(2S)-1-[(2S,4R)-4-Hydroxy-2-({[4-(4-methyl-1,3-thiazol-5-yl)phenyl]methyl}carbamoyl)pyrrolidin-1-yl]-3,3-dimethyl-1-oxobutan-2-yl]carbamoyl}ethoxy)ethoxy]ethoxy}-N-[2-(1-methyl-6-oxo-1,6-dihydropyridazin-3-yl)-1,3-benzoxazol-5-yl]pyridine-2-carboxamide] | < 0.1 | < 0.1 | –
Cc1ncsc1-c1ccc(CNC(=O)[C@@H]2C[C@@H](O)CN2C(=O)[C@@H](NC(=O)CCOCCOCCOCCOc2ccc(C(=O)Nc3ccc4oc(-c5ccc(=O)n(C)n5)nc4c3)nc2)C(C)(C)C)cc1 [Compound 23] | < 0.1 | < 0.1 | –
Cc1ncsc1-c1ccc(CNC(=O)[C@@H]2C[C@@H](O)CN2C(=O)[C@@H](NC(=O)CCOCCOCCOCCOCCOCCOc2ccc(C(=O)Nc3ccc4oc(-c5ccc(=O)n(C)n5)nc4c3)nc2)C(C)(C)C)cc1 [Compound 24] | < 0.1 | < 0.1 | –
Cc1ncsc1-c1ccc(CNC(=O)[C@@H]2C[C@@H](O)CN2C(=O)[C@@H](NC(=O)CCOCCOCCOCCOCCOCCOCCOCCOCCOc2ccc(C(=O)Nc3ccc4oc(-c5ccc(=O)n(C)n5)nc4c3)nc2)C(C)(C)C)cc1 [Compound 25] | 0.1 to 0.5 | – | 0.1 to 0.5
Cc1ncsc1-c1ccc(CNC(=O)[C@@H]2C[C@@H](O)CN2C(=O)[C@H](C(C)C)N2Cc3ccccc3C2=O)c(OCCOc2ccc(COc3ccc4oc(-c5ccc(=O)n(C)n5)nc4c3)nc2)c1 [Compound 43, (2S,4R)-4-hydroxy-1-((S)-3-methyl-2-(1-oxoisoindolin-2-yl)butan-oyl)-N-(2-(2-((6-(((2-(1-methyl-6-oxo-1,6-dihydropyridazin-3-yl)benzo[d]oxazol-5-yl)oxy)methyl)pyridin-3-yl)oxy)ethoxy)-4-(4-methylthiazol-5-yl)benzyl)pyrrolidine-2-carboxamide] | < 0.1 | > 0.5 | –
Cc1ncsc1-c1ccc(CNC(=O)[C@@H]2C[C@@H](O)CN2C(=O)[C@H](C(C)C)N2Cc3ccccc3C2=O)c(OCCOCCOc2ccc(COc3ccc4oc(-c5ccc(=O)n(C)n5)nc4c3)nc2)c1 [Compound 44] | 0.1 to 0.5 | > 0.5 | –
Cc1ncsc1-c1ccc(CNC(=O)[C@@H]2C[C@@H](O)CN2C(=O)[C@H](C(C)C)N2Cc3ccccc3C2=O)c(OCCOCCOCCOc2ccc(COc3ccc4oc(-c5ccc(=O)n(C)n5)nc4c3)nc2)c1 [Compound 45] | 0.1 to 0.5 | > 0.5 | –
Cc1ncsc1-c1ccc(CNC(=O)[C@@H]2C[C@@H](O)CN2C(=O)[C@H](C(C)C)N2Cc3ccccc3C2=O)c(OCCOCCOCCOCCOc2ccc(COc3ccc4oc(-c5ccc(=O)n(C)n5)nc4c3)nc2)c1 [Compound 46] | 0.101 | > 0.5 | –
Cc1ncsc1-c1ccc(CNC(=O)[C@@H]2C[C@@H](O)CN2C(=O)[C@@H](NC(=O)COCCOCCOc2ccc(COc3ccc4oc(-c5ccc(=O)n(C)n5)nc4c3)nc2)C(C)(C)C)cc1 [Compound 47, (2S,4R)-1-[(2S)-3,3-Dimethyl-2-{2-[2-(2-{[6-({[2-(1-methyl-6-oxo-1,6-dihydropyridazin-3-yl)-1,3-benzoxazol-5-yl]oxy}methyl)pyridin-3-yl]oxy}ethoxy)ethoxy]acetamido}butanoyl]-4-hydroxy-N-{[4-(4-methyl-1,3-thiazol-5-yl)phenyl]methyl}pyrrolidine-2-carboxamide] | < 0.1 | 0.1 to 0.5 | –
Cc1ncsc1-c1ccc(CNC(=O)[C@H]2C[C@H](O)CN2C(=O)[C@H](NC(=O)COCCOCCOc2ccc(COc3ccc4oc(-c5ccc(=O)n(C)n5)nc4c3)nc2)C(C)(C)C)cc1 [Compound 48] | < 0.1 | > 0.5 | –
CC(C)C[C@H](NC(=O)[C@@H](O)[C@H](N)Cc1ccccc1)C(=O)NCCOCCOCCNc1ccc(NC(=O)c2ccn3c(n2)nc2ccccc23)cn1 [Compound 60, N-(6-{[2-(2-{2-[(2S)-2-[(2S,3R)-3-azaniumyl-2-hydroxy-4-phenylbutanamido]-4-methylpentanamido]ethoxy}ethoxy)ethyl]amino}pyridin-3-yl)-1,8,10-triazatricyclo[7.4.0.0^2,7]trideca-2,4,6,8,10,12-hexaene-11-carboxamide formate] | < 0.1 | – | –
CC(C)C[C@H](NC(=O)[C@@H](O)[C@H](N)Cc1ccccc1)C(=O)NCCOCCOCCOc1ccc(C(=O)Nc2ccc3oc(-c4cccnc4)nc3c2)nc1 [Compound 61] | < 0.1 | – | –
CC(C)C[C@H](NC(=O)[C@@H](O)[C@H](N)Cc1ccccc1)C(=O)NCCOCCOCCOCCOc1ccc(C(=O)Nc2ccc3oc(-c4cccnc4)nc3c2)nc1 [Compound 62, 5-{2-[2-(2-{2-[(2S)-2-[(2S,3R)-3-Azaniumyl-2-hydroxy-4-phenylbutanamido]-4-methylpentanamido]ethoxy}ethoxy)ethoxy]ethoxy}-N-[2-(pyridin-3-yl)-1,3-benzoxazol-5-yl]pyridine-2-carboxamide diformate] | < 0.1 | – | –
Cc1ccc2nc(-c3ccc(NCCOCCOCCOc4cccc5c4C(=O)N(C4CCC(=O)NC4=O)C5=O)cc3)sc2c1 (stereo not shown) [Compound 63] | < 0.1 | – | –
Cc1ccc2nc(-c3ccc(NCCOCCOCC(=O)N[C@H](C(=O)N4C[C@H](O)C[C@H]4C(=O)NCc4ccc(-c5scnc5C)cc4)C(C)(C)C)cc3)sc2c1 [Compound 64] | > 0.5 | – | –
Cc1ccc2nc(-c3ccc(NCCOCCOCCNc4cccc5c4C(=O)N(C4CCC(=O)NC4=O)C5=O)cc3)sc2c1 (stereo not shown) [Compound 65] | 0.1 to 0.5 | – | –
Cc1ccc2nc(-c3ccc(NC(=O)COCCOCCNC(=O)[C@H](CC(C)C)NC(=O)[C@@H](O)[C@H](N)Cc4ccccc4)cc3)sc2c1 [Compound 66] | 0.1 to 0.5 | – | –
Cc1ccc2nc(-c3ccc(NCCOCCOCCOc4cc(-c5scnc5C)ccc4CNC(=O)C4C[C@@H](O)CN4C(=O)[C@H](C(C)C)N4Cc5ccccc5C4=O)cc3)sc2c1 (stereo partly shown) [Compound 67] | 0.1 to 0.5 | – | –
Cc1ccc2nc(-c3ccc(NCCOCCOCCOCCNc4cccc5c4C(=O)N(C4CCC(=O)NC4=O)C5=O)cc3)sc2c1 (stereo not shown) [Compound 68] | 0.1 to 0.5 | – | –
COc1ccc(NC(=O)c2ccnc(N(CCOCCOCCNC(=O)[C@H](CC(C)C)NC(=O)[C@@H](O)[C@H](N)Cc3ccccc3)c3ccccc3)n2)cn1 [Compound 69] | > 0.5 | – | –
